# From patent US10697960B2, “CXCR4 and ROBO1 expression as markers for autoimmune diabetes” (BOARD OF SUPERVISORS OR LOUISANA STATE UNIVERSITY AND …, priority 2012, dated 2020)
# Entries after “also recorded” stand apart in the source; their conditions may differ. Square brackets hold non-standard residues; d marks the D form. Ends that are not written are not given here. Linker = not defined here
# What was measured:
# [1] = tested on: adoptive transfer models in mice; conditions: cited from earlier work
# [2] = tested on: NOD/ShiLtJ T cells on TNFα-activated MS1 islet endothelial cells; experiment: Parallel plate flow chamber T cell adhesion assay with SDF-1 peptide mimetic; format: cell-based, mouse; conditions: 150 mPa; for TNFα-induced firm adhesion of T cells (fold change in number of adherent cells): MS1 cells treated 10 minutes with mimetic at 200, 1000 or 5000 ng/ml after 10 ng/ml TNFα, versus TNFα alone
# Procedure: Hydrodynamic flow chamber assays were performed as otherwise described in C. Sharp et al. (2008). Briefly, T cells isolated as described above were labeled with CellTracker Green (C7025; Life Technologies, Carlsbad, Calif., USA), rinsed, and resuspended at a concentration of 2×10^6 cells/ml in phenol red-free Hanks' balanced salt solution (HBSS). The cells were placed in a beaker that had been previously coated with Sigmacote (Sigma-Aldrich), kept at 37° C., and stirred at 60 rev/min. A flow chamber insert and gasket with a 0.5 cm flow width and 250 μm thickness (GlycoTech, Gaithersburg, Md., USA) were used with 35 mm cell culture dishes containing confluent MS1 cell cultures to form a parallel plate flow chamber. To activate endothelial cells, MS1 cells were treated for 4 to 6 hours at 37° C. with 10 ng/ml recombinant mouse TNFα (T7539; Sigma).
# For the SDF-1 peptide mimetic T cell adhesion assay, MS1 cells were rinsed with HBSS and treated for 10 minutes with an SDF-1 peptide mimetic (AYWKENKEQ with two branched lysines as a linker between the two motifs, SEQ ID NO 1) at […]. This peptide was a linearized version of a cyclized SDF-1 analogue reported by Tudan et al., “C-terminal cyclization of an SDF-1 small peptide analogue dramatically increases receptor affinity and activation of CXCR4 receptor,” J. Med. Chem., vol. 45, pp. 2024-31 (2002). T cells were pumped through polypropylene tubing by a syringe pump (KD Scientific, Holliston, Mass., USA) across the endothelial monolayer at a physiological shear stress of 150 mPa. Real-time digital video images (minimum 28 frames/second) were captured with an epifluorescence microscope (TE-2000 Eclipse; Nikon, Tokyo, Japan) and digital camera (Model C4742-95-12ER: Hamamatsu Photonics, Hamamatsu, Japan). Simple PCI software (Hamamatsu Photonics) was used to analyze the video and to measure T cell rolling velocities. Cells were considered firmly adherent if they remained stationary for 10 seconds within the field of view. A minimum of three videos per plate and four plates per condition were used for analysis.
# We examined whether a linear SDF-1 peptide mimetic containing the receptor-binding site could replicate the effect of full length SDF-1 in blocking adhesion of T cells to activated endothelium. MS1 cells were treated for 4 hours with 10 ng/ml TNFα, followed by treatment for 10 minutes with an SDF-1 peptide mimetic at 200, 1000, or 5000 ng/ml. Cells were then tested in a parallel plate flow chamber cell adhesion assay. Fluorescently labeled T cells obtained from NOD/ShiLtJ mice flowed over the endothelial monolayers at 150 mPa. […] Leucocyte adhesion videos were analyzed to calculate T cell rolling velocity and to determine whether the decrease in firm adhesion was due to a decreased number of rolling cells.
# NOD/LtSz Rag1^−/− mice = experiment: Diabetes adoptive transfer of diabetogenic splenocytes; format: in vivo, mouse; conditions: for blood glucose levels compared with PBS treatment: 4 to 5 weeks post-transfer
# Procedure: Single cell suspensions of splenocytes were isolated from spleens of spontaneously diabetic female NOD/ShiLtJ mice as otherwise described in J. Glawe et al. (2009) Genetic deficiency of Itgb2 or ItgaL prevents autoimmune diabetes through distinctly different mechanisms in NOD/LtJ mice. Diabetes 58: 1292-1301, Erythrocytes were lysed with 150 mM NH4Cl, 1.0 mM/l KHCO3, and 0.1 mM disodium EDTA, and then resuspended in PBS at 200×10^6 splenocytes per ml. Female NOD/LtSz Rag1^−/− mice were injected retro-orbitally with 20×10^6 splenocytes.
# The recipient mice were then injected retro-orbitally, either once or three times per week, with the SDF-1 peptide mimetic CTCE-0214 (SEQ ID NO. 2, KPVSLSYRCPCRFF-Linker-LKWIQEYLEKALN-OH) (British Canadian BioSciences, Vancouver, BC, Canada) at 1 or 10 mg/kg, or with PBS. See K Li, et al., “Small peptide analogue of SDF-1a supports survival of cord blood CD34+ cells in synergy with other cytokines and enhances their ex vivo expansion and engraftment into nonobese diabetic/severe combined immunodeficient mice,” Stem Cells, vol, 24, pp. 56-64 (2006); R. Zhong et al., “Small peptide analogs to stromal derived factor 1 enhance chemotactic migration of human and mouse hematopoietic cells,” Experimental Hematology, vol 32, pp. 470-475 (2004); A. Faber at al., “The many facets of SDF-1, CXCR4 agonists and antagonists on hematopoietic progenitor cells,” Journal of Biomedicine and Biotechnology, Article ID 26065; doi: 10.1155/200726065 (2007). Blood glucose was measured twice per week via a tail stick assay (Ascensia Glucometer Elite; Bayer, Leverkusen, Germany). Mice were considered hyperglycaemic following two consecutive measurements at 13.9 mM (250 mg/dl) glucose. Another SDF-1 mimetic that could be used is the CTCE-9908 peptide disclosed by A. Faber at al. (2007).
# CD34^+ cells = conditions: at much higher concentrations than SDF-1; cited from earlier work
# [3] = tested on: NOD/ShiLtJ T cells on VCAM-1- and ICAM-1-coated plates; experiment: SLIT2 T cell detachment assay on VCAM-1- and ICAM-1-coated plates; format: cell-based, mouse; conditions: SDF-1 plus 20 μg/ml SLIT2 versus SDF-1 alone
# Procedure: T cell detachment assays were performed as otherwise described in C. Sharp et al. (2008). T cells were injected into the tubing via an inlet port upstream of the flow chamber at a concentration of 2×10^6 cells/ml and allowed to firmly adhere under static conditions for 15 minutes. Next, shear stress was initiated and increased in a step-wise manner every 30 seconds as follows: 35, 56, 91, 224, 504, and 980 mPa. The assay was recorded by video, which was analyzed to determine the percentage of cells detached at the end of each shear stress interval. For the anti-ROBO1 detachment assay, MS1 cells were treated for […] at 37° C. with TNFα as described above and then with 100 ng/ml recombinant mouse SDF-1α (460-SD; R&D Systems). T cells were pre-treated for 30 minutes at 37° C. with 20 μg/ml ROBO1 blocking antibody (GT15144; Neuromics, Edina, Minn., USA) or isotype control (GT15900; Neuromics).
# For the SLIT2 detachment assay, the following modifications were made. Vascular cell adhesion molecule 1 (VCAM-1)- and intercellular cell adhesion molecule 1 (ICAM-1)-coated plates were substituted for confluent monolayers of MS1 cells to isolate the specific ligand and receptor interactions involved. Plates were treated by tracing five 5 mm diameter circles aligned in one row in the center of a 100 mm diameter tissue culture dish using a PAP pen, and then applying 15 μl of 1 mg/ml protein A to each circle for 30 minutes. Plates were rinsed twice with PBS and blocked for 30 minutes with 5% (wt/vol) BSA in PBS. Plates were rinsed and each circle was then treated for 30 minutes with 15 μl of a solution containing 5 μg/ml ICAM-1/Fc chimera (796-IC; R&D Systems) and 5 μg/ml VCAM-1/Fc chimera (643-VM; R&D Systems), or PBS (control). Plates were rinsed and stored at 4° C. T cells were suspended in HBSS containing, 10 μg/ml heparin sodium and treated for 15 minutes at 37° C. with 250 ng/ml SDF-1 and 20 μg/ml recombinant mouse SLIT2 (5444-SL; R&D Systems) before use. A Glycotech rectangular flow chamber with a 250 μm thick gasket and a 1 cm wide flow path was used. […]
molecule,measurement,setting,value
c1cc(CN2CCCNCCNCCCNCC2)ccc1CN1CCCNCCNCCCNCC1 [AMD3100],development of diabetes,[1]; disruption of SDF-1-CXCR4 binding,accelerate the development of diabetes
same,beta cell apoptosis,"[1]; mouse, in vivo",induce beta cell apoptosis
"AYWKENKEQ with two branched lysines as a linker between the two motifs (also: two branched lysines as a linker between the two motifs) [SDF-1 peptide mimetic, linearized version of a cyclized SDF-1 analogue reported by Tudan et al]",TNFα-induced firm adhesion of T cells (fold change in number of adherent cells),[2],prevented NOD T cell adhesion; also recorded: significantly reduced; also recorded: reversed
same,number of rolling cells,"[2]; TNFα-treated MS1 cells, data not shown",did not decrease
same,T cell rolling velocity,"[2]; TNFα-treated endothelial cells, versus control",did not significantly affect
"KPVSLSYRCPCRFF-Linker-LKWIQEYLEKALN-OH (KPVSLSYRCPCRFF[Linker]LKWIQEYLEKALN-OH; cysteine pairing not given here; reading uncertain; also: printed as KPVSLSYRCPCRFF-Linker-LKWIQEYLEKALN-OH) [CTCE-0214, 2, small peptide CXCR4 agonist from British Canadian BioSciences]",TNFα-induced firm adhesion of T cells (fold change in number of adherent cells),[2],can reduce
same,progression of autoimmune diabetes,NOD/LtSz Rag1^−/− mice; 1 mg/kg,almost no effect
same,blood glucose levels compared with PBS treatment,NOD/LtSz Rag1^−/− mice; 1 mg/kg three times per week,not
same,blood glucose levels compared with PBS-treated mice,"NOD/LtSz Rag1^−/− mice; 10 mg/kg once per week, retro-orbital, 5.5 and 6 weeks post-transfer",significantly reduced glucose levels
same,development of hyperglycaemia compared with PBS treatment,NOD/LtSz Rag1^−/− mice; 10 mg/kg one time per week,delayed development of hyperglycaemia
same,development of hyperglycaemia compared with PBS treatment,NOD/LtSz Rag1^−/− mice; 10 mg/kg three times per week,delayed development of hyperglycaemia
same,blood glucose levels compared with PBS treatment,NOD/LtSz Rag1^−/− mice; 10 mg/kg three times per week,significantly reduced glucose levels
same,"adoptive transfer / progression of autoimmune diabetes, onset of hyperglycaemia",NOD/LtSz Rag1^−/− mice; 10 mg/kg where a dose is stated,significantly delayed the onset of hyperglycaemia; also recorded: therapeutically beneficial; also recorded: effectively delayed adoptive transfer of diabetes; also recorded: slowed the development of diabetes
same,effect of dosing frequency on incidence of hyperglycaemia,NOD/LtSz Rag1^−/− mice; once per week versus three times per week,better reduction in the incidence of hyperglycaemia at a dosing of once per week; also recorded: more beneficial effect at once-a-week dosing
same,migration of CD34^+ cells,CD34^+ cells,increases migration
"SLIT2: recombinant mouse SLIT2 (5444-SL; R&D Systems), ligand of ROBO1 (protein) QACPAQCSCSGSTVDCHGLALRSVPRNIPRNTERLDLNGNNITRITKIDFAGLRHLRVLQLMENRISTIERGAFQDLKELERLRLNRNNLQLFPELLFLGTAKLYRLDLSENQIQAIPRKAFRGAVDIKNLQLDYNQISCIEDGAFRALRDLEVLTLNNNNITRLSVASFNHMPKLRTFRLHSNNLYCDCHLAWLSDWLRQRPRVGLYTQCMGPSHLRGHNVAEVQKREFVCSGHQSFMAPSCSVLHCPAACTCSNNIVDCRGKGLTEIPTNLPETITEIRLEQNSIRVIPPGAFSPYKKLRRLDLSNNQISELAPDAFQGLRSLNSLVLYGNKITELPKSLFEGLFSLQLLLLNANKINCLRVDAFQDLHNLNLLSLYDNKLQTVAKGTFSALRAIQTMHLAQNPFICDCHLKWLADYLHTNPIETSGARCTSPRRLANKRIGQIKSKKFRCSGTEDYRSKLSGDCFADLACPEKCRCEGTTVDCSNQRLNKIPDHIPQYTAELRLNNNEFTVLEATGIFKKLPQLRKINFSNNKITDIEEGAFEGASGVNEILLTSNRLENVQHKMFKGLESLKTLMLRSNRISCVGNDSFIGLGSVRLLSLYDNQITTVAPGAFDSLHSLSTLNLLANPFNCNCHLAWLGEWLRRKRIVTGNPRCQKPYFLKEIPIQDVAIQDFTCDDGNDDNSCSPLSRCPSECTCLDTVVRCSNKGLKVLPKGIPKDVTELYLDGNQFTLVPKELSNYKHLTLIDLSNNRISTLSNQSFSNMTQLLTLILSYNRLRCIPPRTFDGLKSLRLLSLHGNDISVVPEGAFNDLSALSHLAIGANPLYCDCNMQWLSDWVKSEYKEPGIARCAGPGEMADKLLLTTPSKKFTCQ",shear-mediated T cell detachment from VCAM-1- and ICAM-1-coated plates,[3],significant increase in detachment; also recorded: promoted detachment
same,shear-mediated T cell detachment from VCAM-1- and ICAM-1-coated plates,[3]; listed as Slit-2 peptide containing the LRR domain 2,stimulated detachment
same,shear-mediated T cell detachment from VCAM-1- and ICAM-1-coated plates,[3]; listed as recombinant SLIT2,reversed
